The record followed here is US7449465B2, “Triazolopyrimidine derivatives as glycogen synthase kinase 3 inhibitors” (Janssen Pharmaceutica, N.V., priority 2003, dated 2008).

Structures can show the parent of a compound that is named as a salt. Some results are limits rather than exact numbers.

Chain of GSK3β (P49841 whole entry, species assumed): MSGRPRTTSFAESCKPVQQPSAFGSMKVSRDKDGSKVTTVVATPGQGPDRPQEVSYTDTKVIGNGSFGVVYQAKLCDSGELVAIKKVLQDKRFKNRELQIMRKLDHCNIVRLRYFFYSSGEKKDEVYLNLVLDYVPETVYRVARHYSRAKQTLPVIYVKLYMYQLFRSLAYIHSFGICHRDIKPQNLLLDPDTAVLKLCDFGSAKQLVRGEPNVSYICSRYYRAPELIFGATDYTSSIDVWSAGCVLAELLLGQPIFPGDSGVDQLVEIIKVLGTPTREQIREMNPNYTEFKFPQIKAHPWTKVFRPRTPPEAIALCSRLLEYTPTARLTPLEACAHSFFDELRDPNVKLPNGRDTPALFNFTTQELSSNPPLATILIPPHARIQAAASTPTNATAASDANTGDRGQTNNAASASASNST
Chain of GSK3alpha (P49840 whole entry, species assumed): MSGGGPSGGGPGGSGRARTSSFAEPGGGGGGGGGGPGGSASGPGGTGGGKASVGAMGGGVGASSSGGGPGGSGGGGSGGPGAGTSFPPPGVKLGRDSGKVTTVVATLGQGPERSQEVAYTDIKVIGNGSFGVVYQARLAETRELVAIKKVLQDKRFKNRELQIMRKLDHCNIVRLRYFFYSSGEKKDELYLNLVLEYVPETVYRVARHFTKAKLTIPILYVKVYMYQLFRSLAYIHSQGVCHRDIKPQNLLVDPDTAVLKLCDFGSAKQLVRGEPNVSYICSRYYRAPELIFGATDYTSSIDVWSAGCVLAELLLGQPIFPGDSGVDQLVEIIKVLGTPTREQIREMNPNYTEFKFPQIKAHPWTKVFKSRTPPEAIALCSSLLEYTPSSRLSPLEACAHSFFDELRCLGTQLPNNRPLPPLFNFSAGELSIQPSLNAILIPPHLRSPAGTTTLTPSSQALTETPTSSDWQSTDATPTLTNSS

The first data set concerns the target GSK3alpha (Homo sapiens, UniProt P49840). In words: GSK3alpha assay (same as the GSK3beta assay, 0.25 ng/μl GSK3alpha). The class given is biochemical. Conditions: ranges of pIC50 (−log IC50 (M)), 1 μM ATP, read-out: GSK3a pIC50 (converted). The method in brief: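 Human GSK3alpha at 0.25 ng/μl phosphorylated 5 μM biotinylated phospho-CREB peptide with 1 μM ATP plus ATP-P^33 in Tris pH 7.4/MgCl2/DTT/BSA/glycerol, 1 h at room temperature. Streptavidin SPA beads counted by scintillation gave % inhibition versus no-compound control; IC50 came from dose-response curves.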
For `CN1CCN(c2ccc(Nc3ncc4nnn(-c5cccc(CC#N)c5)c4n3)cc2)CC1` [Compound 88], the IC50 was below 1e-08 M.

As for `OCc1cccc(-n2nnc3cnc(Nc4cccc(-c5cnco5)c4)nc32)c1` [Compound 96], the IC50 is below 1e-08 M.

On to `O=c1[nH]nc(-c2cccc(Nc3ncc4nnn(-c5cccc(F)c5)c4n3)c2)[nH]1` [Compound 1], for which the IC50 was below 1e-08 M.

For `N#CCc1cccc(-n2nnc3cnc(Nc4cccc(-c5ccnc(N)n5)c4)nc32)c1` [Compound 87], the IC50 is below 1e-08 M.

For the molecule `Cn1nccc1-c1cccc(Nc2ncc3nnn(-c4ccccc4)c3n2)c1` [Compound 9], the IC50 was below 1e-08 M.

As for `Fc1cccc(-n2nnc3cnc(Nc4cccc(-c5cccnc5)c4)nc32)c1` [Compound 30], the IC50 is below 1e-08 M.

With `COCC(=O)NCc1cccc(-n2nnc3cnc(Nc4cccc(-c5cnco5)c4)nc32)c1` [Compound 122], the IC50 is below 1e-08 M.

Turning to `CC(=O)NCc1cccc(-n2nnc3cnc(Nc4cccc(-c5cnco5)c4)nc32)c1` [Compound 115], the IC50 is below 1e-08 M.

For `Fc1cccc(-n2nnc3cnc(Nc4cccc(-c5cnccn5)c4)nc32)c1` [Compound 2], the IC50 is below 1e-08 M.

System in the next data set: not given
Test: not given
Details: not given
The molecule `CN1CCN(c2ccc(Nc3ncc4nnn(-c5cccc(CC#N)c5)c4n3)cc2)CC1` [Compound 88] displayed a melting point of 210 to 212 °C.

`OCc1cccc(-n2nnc3cnc(Nc4cccc(-c5cnco5)c4)nc32)c1` [Compound 96] gave a melting point of 210 to 214 °C.

In the case of `O=c1[nH]nc(-c2cccc(Nc3ncc4nnn(-c5cccc(F)c5)c4n3)c2)[nH]1` [Compound 1], the melting point is above 260 °C.

`N#CCc1cccc(-n2nnc3cnc(Nc4cccc(-c5ccnc(N)n5)c4)nc32)c1` [Compound 87] showed a melting point above 260 °C.

Regarding `Cn1nccc1-c1cccc(Nc2ncc3nnn(-c4ccccc4)c3n2)c1` [Compound 9], the melting point is 216 °C.

On to `Fc1cccc(-n2nnc3cnc(Nc4cccc(-c5cccnc5)c4)nc32)c1` [Compound 30], for which the melting point lay in the range of 208 to 212 °C.

Molecule `COCC(=O)NCc1cccc(-n2nnc3cnc(Nc4cccc(-c5cnco5)c4)nc32)c1` [Compound 122] yielded a melting point of 210 to 214 °C.

The molecule `CC(=O)NCc1cccc(-n2nnc3cnc(Nc4cccc(-c5cnco5)c4)nc32)c1` [Compound 115] registered a melting point of 156 to 160 °C.

Turning to `Fc1cccc(-n2nnc3cnc(Nc4cccc(-c5cnccn5)c4)nc32)c1` [Compound 2], the melting point was above 260 °C.

As to `CN1CCN(c2cccc(Nc3ncc4nnn(-c5cccc(F)c5)c4n3)c2)CC1` (as salt: HCl) [Compound 36], the melting point is above 250 °C.

`O=[N+]([O-])c1cc(Nc2ncc3nnn(C4CCCCC4)c3n2)ccc1N1CCOCC1` [Compound 5] came in with a melting point of 161.9 °C.

The molecule `CN1CCN(c2ccc(Nc3ncc4nnn(C5CCCCC5)c4n3)cc2)CC1` [Compound 4] registered a melting point of 167 °C.

A further data set concerns the target GSK3β (Homo sapiens, UniProt P49841). As to the kind of experiment: GSK3beta assay (SPA, biotinylated phosphorylated CREB peptide, ATP-P33). The class given is biochemical. Conditions: ranges of pIC50 (−log IC50 (M)); 1 μM ATP, room temperature, one hour; read-out: GSK3b pIC50 (converted). The method in brief: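 Kinase reaction (5.7 ng/μl GSK3β, 5 μM biotinylated phospho-CREB peptide, 1 μM ATP plus [33P]ATP) ran 1 h at room temperature in 25 mM Tris pH 7.4, 10 mM MgCl2. Streptavidin SPA beads captured product for scintillation counting. Inhibition versus no-compound control gave IC50 from dose-response.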
In the case of `CN1CCN(c2ccc(Nc3ncc4nnn(-c5cccc(CC#N)c5)c4n3)cc2)CC1` [Compound 88], the IC50 was below 1e-08 M.

In the case of `OCc1cccc(-n2nnc3cnc(Nc4cccc(-c5cnco5)c4)nc32)c1` [Compound 96], the IC50 was below 1e-08 M.

Take `O=c1[nH]nc(-c2cccc(Nc3ncc4nnn(-c5cccc(F)c5)c4n3)c2)[nH]1` [Compound 1]: the IC50 is below 1e-08 M.

Take `N#CCc1cccc(-n2nnc3cnc(Nc4cccc(-c5ccnc(N)n5)c4)nc32)c1` [Compound 87]: the IC50 is below 1e-08 M.

As to `Cn1nccc1-c1cccc(Nc2ncc3nnn(-c4ccccc4)c3n2)c1` [Compound 9], the IC50 is below 1e-08 M.

Turning to `Fc1cccc(-n2nnc3cnc(Nc4cccc(-c5cccnc5)c4)nc32)c1` [Compound 30], the IC50 was below 1e-08 M.

In the case of `COCC(=O)NCc1cccc(-n2nnc3cnc(Nc4cccc(-c5cnco5)c4)nc32)c1` [Compound 122], the IC50 is below 1e-08 M.

`CC(=O)NCc1cccc(-n2nnc3cnc(Nc4cccc(-c5cnco5)c4)nc32)c1` [Compound 115]: the IC50 is below 1e-08 M.

Take `Fc1cccc(-n2nnc3cnc(Nc4cccc(-c5cnccn5)c4)nc32)c1` [Compound 2]: the IC50 is below 1e-08 M.

In the case of `O=[N+]([O-])c1cc(Nc2ncc3nnn(C4CCCCC4)c3n2)ccc1N1CCOCC1` [Compound 5], the IC50 is 1e-08 to 1e-07 M.

The term melting point denotes the temperature, or range, at which the solid turns liquid.
